Data on four molecules can be found in patent US11655258B2, “Heterocycle derivatives as pesticides” (BAYER AKTIENGESELLSCHAFT, priority 2017, dated 2023).

One data set deals with Musca domestica. The data set can be described thus: Musca domestica test. As to conditions: application rate 100 ppm, adult houseflies, after 2 days. It counts as in vivo. The protocol: Musca domestica Test • Solvent: dimethyl sulfoxide
(§1) To produce a suitable active compound formulation, 10 mg of active compound are mixed with 0.5 ml of dimethyl sulfoxide, and the concentrate is diluted with water to the desired concentration.
Vessels containing a sponge treated with sugar solution and the desired concentration of active compound formulation are populated with 10 adult houseflies (Musca domestica).
After 2 days, the kill in % is determined. 100% means that all of the flies have been killed; 0% means that none of the flies have been killed.

The test system of data set [1] is Myzus persicae. The data set can be described thus: Myzus persicae oral test. The data set is classed as in vivo. As to conditions: 120 h, application rate 4 ppm, after 5 days, read-out: efficacy. As for the experimental part:
Myzus persicae Oral Test • Solvent: 100 parts by weight of acetone
To produce a suitable preparation of active compound, 1 part by weight of active compound is dissolved using the specified parts by weight of solvent and made up with water until the desired concentration is attained.
50 μl of the active compound preparation are transferred into microtitre plates and made up to a final volume of 200 μl with 150 μl of IPL41 insect medium (33%+15% sugar). Subsequently, the plates are sealed with parafilm, which a mixed population of green peach aphids (Myzus persicae) within a second microtitre plate is able to puncture and imbibe the solution through.
(§2) After 5 days, the efficacy in % is determined. 100% means that all the aphids have been killed; 0% means that no aphids have been killed.

Another data set relates to Lucilia cuprina. The data set can be described thus: Lucilia cuprina test. The following applies: application rate 100 ppm, L1 larvae, after 2 days. It counts as in vivo. The protocol:
Lucilia cuprina Test • Solvent: dimethyl sulfoxide
as §1
About 20 L1 larvae of the Australian sheep blowfly (Lucilia cuprina) are transferred into a test vessel containing minced horsemeat and the active compound formulation of the desired concentration.
After 2 days, the kill in % is determined. 100% means that all the larvae have been killed; 0% means that no larvae have been killed.

The subject of another data set is Spodoptera frugiperda. As to the kind of experiment: Spodoptera frugiperda spray test. It counts as in vivo. As to conditions: application rate 100 g/ha, after 7 days. The protocol: Spodoptera frugiperda—Spray Test • Solvent: 78.0 parts by weight of acetone • 1.5 parts by weight of dimethylformamide • Emulsifier: alkylaryl polyglycol ether
(§3) To produce a suitable active compound preparation, 1 part by weight of active compound is dissolved using the stated parts by weight of solvent and made up with water containing an emulsifier concentration of 1000 ppm until the desired concentration is attained. To produce further test concentrations, the formulation is diluted with emulsifier-containing water.
Leaf discs of maize (Zea mays) are sprayed with an active compound formulation of the desired concentration and, after drying, populated with caterpillars of the fall armyworm (Spodoptera frugiperda).
After 7 days, the efficacy in % is determined. 100% means that all the caterpillars have been killed; 0% means that no caterpillar has been killed.

The subject of data set [2] is Ctenocephalides felis. The data set can be described thus: Ctenocephalides felis in vitro contact test with adult cat fleas. It counts as in vivo. The following applies: application rate 5 μg/cm^2 (=500 g of ai/ha), after 48 h. The protocol:
Ctenocephalides felis—In Vitro Contact Tests with Adult Cat Fleas
(§4) For the coating of the test tubes, 9 mg of active compound are first dissolved in 1 ml of acetone p.a. and then diluted to the desired concentration with acetone p.a. 250 μl of the solution are distributed homogeneously on the inner walls and the base of a 25 ml glass tube by turning and rocking on an orbital shaker (rocking rotation at 30 rpm for 2 h). With 900 ppm of active compound solution and internal surface area 44.7 cm^2, given homogeneous distribution, an area-based dose of 5 μg/cm^2 is achieved.
After the solvent has evaporated off, the tubes are populated with 5-10 adult cat fleas (Ctenocephalides felis), sealed with a perforated plastic lid and incubated in a horizontal position at room temperature and ambient humidity. After 48 h, efficacy is determined. To this end, the tubes are stood upright and the fleas are knocked to the base of the tube. Fleas which remain motionless at the base or move in an uncoordinated manner are considered to be dead or moribund.
100% efficacy means that all the fleas were dead or moribund. 0% efficacy means that no fleas were harmed.

In a further data set the test system is Phaedon cochleariae. The data set can be described thus: Phaedon cochleariae spray test. The data set is classed as in vivo. The following applies: 168 h, after 7 days, read-out: efficacy; for pest or weed control at 20 g/ha: application rate 20 g/ha; for pest or weed control at 100 g/ha: application rate 100 g/ha. As for the experimental part: Phaedon cochleariae—Spray Test • Solvent: 78.0 parts by weight of acetone • 1.5 parts by weight of dimethylformamide • Emulsifier: alkylaryl polyglycol ether
as §3
Discs of Chinese cabbage leaves (Brassica pekinensis) are sprayed with an active compound formulation of the desired concentration and, after drying, populated with larvae of the mustard beetle (Phaedon cochleariae).
After 7 days, the efficacy in % is determined. 100% means that all the beetle larvae have been killed; 0% means that no beetle larvae have been killed.

For data set [3], the system named is Ctenocephalides felis. As to the kind of experiment: Ctenocephalides felis oral test. It counts as in vivo. As to conditions: application rate 100 ppm in citrated cattle blood, after 2 days. As for the experimental part:
Ctenocephalides felis—Oral Test • Solvent: dimethyl sulfoxide
To produce a suitable active compound formulation, 10 mg of active compound are mixed with 0.5 ml of dimethyl sulfoxide. Dilution with citrated cattle blood gives the desired concentration.
About 20 unfed adult cat fleas (Ctenocephalides felis) are placed into a chamber which is closed at the top and bottom with gauze. A metal cylinder whose bottom end is closed with parafilm is placed onto the chamber. The cylinder contains the blood/active compound formulation, which can be imbibed by the fleas through the parafilm membrane.
After 2 days, the kill in % is determined. 100% means that all of the fleas have been killed; 0% means that none of the fleas have been killed.

In data set [4] the test system is Myzus persicae. As to the kind of experiment: Myzus persicae spray test (MYZUPE S), bell pepper plants. The data set is classed as in vivo. As to conditions: 144 h, 6 dat, read-out: % efficacy. As for the experimental part:
Myzus persicae—Spray Test (MYZUPE S) • Solvent: 14 parts by weight of dimethylformamide • Emulsifier: alkylaryl polyglycol ether
(§5) To produce a suitable active compound preparation, 1 part by weight of active compound is dissolved using the stated parts by weight of solvent and made up with water containing an emulsifier concentration of 1000 ppm until the desired concentration is attained. To produce further test concentrations, the formulation is diluted with emulsifier-containing water. If the addition of ammonium salts or/and penetrants is required, these are each added in a concentration of 1000 ppm to the formulation solution.
Bell pepper plants (Capsicum annuum) severely infested with the green peach aphid (Myzus persicae) are treated by spraying with the active compound formulation in the desired concentration.
After the desired time, the kill in % is determined. 100% means that all the animals have been killed; 0% means that no animals have been killed.

A further data set concerns Nilaparvata lugens. The data set can be described thus: Nilaparvata lugens spray test (NILALU). It counts as in vivo. As to conditions: 96 h, 500 g/ha, 4 dat, read-out: % efficacy. The protocol: Nilaparvata lugens—Spray Test (NILALU) • Solvent: 52.5 parts by weight of acetone • 7 parts by weight of dimethylformamide • Emulsifier: alkylaryl polyglycol ether
as §5
Rice plants (Oryza sativa) are sprayed with an active ingredient formulation of the desired concentration and then populated with larvae of the brown planthopper (Nilaparvata lugens).
After the desired period of time, the efficacy in % is determined. 100% means that all of the planthoppers have been killed; 0% means that none of the planthoppers have been killed.

Data set [5] relates to Myzus persicae. The data set can be described thus: Myzus persicae drench test (MYZUPE D), savoy cabbage. It counts as in vivo. As to conditions: soil, 240 h, 10 dat, read-out: % efficacy. As for the experimental part: Myzus persicae—Drench Test (MYZUPE D) • Solvent: 7 parts by weight of dimethylformamide • Emulsifier: 2 parts by weight of alkylaryl polyglycol ether
To produce a suitable active compound preparation, 1 part by weight of active compound is mixed with the specified amounts of solvent and emulsifier, and the concentrate is diluted with water to the desired concentration, it being necessary to include the volume of soil which is drenched in the calculation. It should be ensured that a concentration of 40 ppm of emulsifier in the soil is not exceeded. To produce further test concentrations, water is used for dilution.
Savoy cabbage (Brassica oleracea) in pots with soil and infested by all stages of the green peach aphid (Myzus persicae) is watered with an active compound preparation of the desired concentration.
After the desired period of time, the efficacy in % is determined. 100% means that all the aphids have been killed; 0% means that no aphids have been killed.

Another data set concerns Aphis gossypii. The data set can be described thus: Aphis gossypii spray test (APHIGO). The following applies: 144 h, 6 dat, read-out: % efficacy. It counts as in vivo. The protocol: Aphis gossypii Spray Test (APHIGO) • Solvent: 14 parts by weight of dimethylformamide • Emulsifier: alkylaryl polyglycol ether
as §5
Cotton plants (Gossypium hirsutum) heavily infested by the cotton aphid (Aphis gossypii) are sprayed with an active compound formulation of the desired concentration.
After the desired time, the kill in % is determined. 100% means that all the aphids have been killed; 0% means that no aphids have been killed.

Data set [6] can be described thus: log P by HPLC on reversed-phase column (EEC Directive 79/831 Annex V.A8). It counts as physicochemical. As to conditions: reversed-phase HPLC column (C18); pH 7.8, 0.001 molar aqueous ammonium bicarbonate/acetonitrile, 55° C.; read-out: log P (neutral). The protocol:
The log P values are measured according to EEC Directive 79/831 Annex V.A8 by HPLC (high-performance liquid chromatography) on a reversed-phase column (C 18). Temperature: 55° C.
The LC-MS determination in the neutral range is effected at pH 7.8 with 0.001 molar aqueous ammonium bicarbonate solution and acetonitrile as mobile phases; linear gradient from 10% acetonitrile to 95% acetonitrile. Called log P (neutral) in the table.
Calibration is carried out using unbranched alkan-2-ones (having 3 to 16 carbon atoms) with known Log P values (Log P values determined on the basis of the retention times by linear interpolation between two successive alkanones).

The subject of the next data set is Rhipicephalus sanguineus. As to the kind of experiment: Rhipicephalus sanguineus in vitro contact test with adult brown dog ticks. It counts as in vivo. As to conditions: application rate 1 μg/cm^2 (=100 g of ai/ha), after 48 h. The protocol: Rhipicephalus sanguineus—In Vitro Contact Tests with Adult Brown Doe Ticks
as §4
After the solvent has evaporated off, the tubes are populated with 5-10 adult dog ticks (Rhipicephalus sanguineus), sealed with a perforated plastic lid and incubated in a horizontal position in the dark at room temperature and ambient humidity. After 48 h, efficacy is determined. To this end, the ticks are knocked to the base of the tube and incubated on a hotplate at 45-50° C. for not more than 5 min. Ticks which remain motionless on the base or move in such an uncoordinated manner that they are unable to deliberately avoid the heat by climbing upwards are considered to be dead or moribund.
An efficacy of 100% means that all the ticks were dead or moribund. 0% efficacy means that none of the ticks were harmed.

In data set [7] the test system is Myzus persicae. The data set can be described thus: Myzus persicae spray test (Chinese cabbage leaf discs). The data set is classed as in vivo. The following applies: foliar, 120 h, application rate 100 g/ha, after 5 days, read-out: efficacy. The protocol:
Myzus persicae Spray Test • Solvent: 78 parts by weight of acetone • 1.5 parts by weight of dimethylformamide • Emulsifier: alkylaryl polyglycol ether
as §3
Discs of Chinese cabbage leaves (Brassica pekinensis) infested by all stages of the green peach aphid (Myzus persicae) are sprayed with an active compound formulation of the desired concentration.
as §2

A further data set relates to Boophilus microplus. The data set can be described thus: Boophilus microplus injection test. It counts as in vivo. As to conditions: application rate 20 μg/animal, laying of fertile eggs after 7 days. The protocol: Boophilus microplus Injection Test • Solvent: dimethyl sulfoxide
To produce a suitable active compound formulation, 10 mg of active compound are mixed with 0.5 ml of solvent and the concentrate is diluted to the desired concentration with solvent.
1 μl of the active compound solution is injected into the abdomen of 5 engorged adult female cattle ticks (Boophilus microplus). The animals are transferred into dishes and kept in a climate-controlled room.
Efficacy is assessed after 7 days by laying of fertile eggs. Eggs which are not visibly fertile are stored in a climate-controlled cabinet until the larvae hatch after about 42 days. An efficacy of 100% means that none of the ticks has laid any fertile eggs; 0% means that all the eggs are fertile.

Take `CCS(=O)(=O)c1c(-c2nc3ccc(C(F)(F)F)cn3n2)nc2cc(I)ccn12` [Example I-12]: the results for the “efficacy (kill)” value in the data set on Musca domestica and in the data set on Lucilia cuprina were 90% and 100%, respectively. In addition, in the data set with Myzus persicae [1], the pest or weed control at 4 ppm came to 90%. The efficacy with Spodoptera frugiperda and with Ctenocephalides felis [2] was 100% in each case. For the same molecule, the pest or weed control at 20 g/ha in the data set with Phaedon cochleariae came out at 100%. Besides, the pest or weed control at 100 g/ha in the data set on Phaedon cochleariae is 100%.
Turning to `CCS(=O)(=O)c1c(-c2nc3ccc(C(F)(F)F)cn3n2)nc2cc(C(F)(F)F)ccn12` [Example I-01], the “efficacy (kill)” value in the data set with Ctenocephalides felis [3] and in the data set with Lucilia cuprina was 100% each time. Besides, in the data set on Myzus persicae [1], the pest or weed control at 4 ppm amounted to 100%. Also, the Emax at 20 ppm was determined as 95% in the data set with Myzus persicae [4], 90% in the data set with Myzus persicae [5] and 99% in the data set with Aphis gossypii. The efficacy in the data set with Spodoptera frugiperda and in the data set with Ctenocephalides felis [2] was 100% in each case. The Emax at 500 g/ha in the data set on Nilaparvata lugens is 80%. For the same molecule, the pest or weed control at 20 g/ha in the data set on Phaedon cochleariae came to 100%. The pest or weed control at 100 g/ha in the data set on Phaedon cochleariae was determined as 100%. Further, the chromatographic logP in [6] was 2.41.
On to `CCS(=O)(=O)c1cc2ccccc2nc1-c1nc2cc(C(F)(F)F)ncn2n1` [Example I-05], for which the “efficacy (kill)” value was found to be 95% in the data set with Ctenocephalides felis [3] and 100% in the data set on Lucilia cuprina. For the same molecule, in the data set on Myzus persicae [1], the pest or weed control at 4 ppm was found to be 100%. Besides, the efficacy is 100% in the data set with Spodoptera frugiperda, 100% in the data set on Ctenocephalides felis [2] and 80% in the data set on Rhipicephalus sanguineus. The pest or weed control at 20 g/ha in the data set on Phaedon cochleariae worked out at 100%. Moreover, the pest or weed control at 100 g/ha with Phaedon cochleariae turned out to be 100%; with Myzus persicae [7], 90%.
On to `CCS(=O)(=O)c1c(-c2nc3ccc(C(F)(F)F)cn3n2)nc2cc(NC(=O)C3CC3)ccn12` [Example I-09], for which the “efficacy (kill)” value with Ctenocephalides felis [3] was 95%. Besides, in the data set with Myzus persicae [1], the pest or weed control at 4 ppm is 100%. The molecule also registered an efficacy in the data set on Boophilus microplus of 100%.
